The record followed here is patent US9139581B2 (PORTOLA PHARMACEUTICALS, INC., priority 2008, dated 2015).

The target in one test is T1, full length active recombinant SYK enzyme (Homo sapiens, UniProt P43405).
T1 construct: full length active recombinant SYK enzyme (Millipore, Calif.); purchased Millipore
Put plainly: Inhibition of Syk tyrosine phosphorylation activity (LANCE TR-FRET). The class given is biochemical. The following applies: Table 3; 1 nM SYK, 100 μM ATP; read-out: Syk IC50 code. The method, boiled down:
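The reaction is quenched with buffer holding Eu-anti-phosphotyrosine and streptavidin-APC, and detection runs 1 hr at room temperature. TR-FRET is read and IC50s come from non-linear regression.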
With `Nc1nc(Nc2ccc(C(=O)O)cc2)nc2[nH]cc(-c3ccncc3)c12` [Example 102, 4-(4-amino-5-(pyridin-4-yl)-7H-pyrrolo[2,3-d]pyrimidin-2-ylamino)benzoic acid], the IC50 is > 1000 nM.

For the compound `c1cc2c(NCCCN3CCOCC3)nc(Nc3ccc4cn[nH]c4c3)nc2[nH]1` [Example 61, N2-(1H-indazol-6-yl)-N4-(3-morpholinopropyl)-7H-pyrrolo[2,3-d]pyrimidine-2,4-diamine], the half-inhibitory concentration (IC50) was > 1000 nM.

`O=S(=O)(c1ccc(Nc2nc(NC3CCC3)c3cc[nH]c3n2)cc1)N1CCC(O)CC1` [Example 52, 1-(4-(4-(cyclobutylamino)-7H-pyrrolo[2,3-d]pyrimidin-2-ylamino)phenylsulfonyl)piperidin-4-ol]: the IC50 fell in the range of 10 to 100 nM.

Turning to `NC(=O)c1cccc(Nc2nc(Nc3ccc(N4CCNCC4)cc3)nc3[nH]ccc23)c1` [Example 95B, 3-(2-(4-(piperazin-1-yl)phenylamino)-7H-pyrrolo[2,3-d]pyrimidin-4-ylamino)benzamide], the half-inhibitory concentration (IC50) fell in the range of 100 to 1000 nM.

As for `NC(=O)CNS(=O)(=O)c1ccc(Nc2nc(NC3CCC3)c3cc[nH]c3n2)cc1` [Example 54, 2-(4-(4-(cyclobutylamino)-7H-pyrrolo[2,3-d]pyrimidin-2-ylamino)phenylsulfonamido)acetamide], the concentration for half-maximal inhibition (IC50) was 10 to 100 nM.

In the case of `NCC1CCN(c2nc(Nc3ccc4c(c3)CCC(=O)N4)ncc2-c2ccncc2)CC1` [Example 138, 6-(4-(4-(aminomethyl)piperidin-1-yl)-5-(pyridin-4-yl)pyrimidin-2-ylamino)-3,4-dihydroquinolin-2(1H)-one], the IC50 was > 1000 nM.

As to `CC(=O)N1CCN(c2ccc(Nc3ncc(F)c(N4CCC(N)CC4)n3)cc2)CC1` [Example 128, 1-(4-(4-(4-(4-aminopiperidin-1-yl)-5-fluoropyrimidin-2-ylamino)phenyl)piperazin-1-yl)ethanone], the IC50 was > 1000 nM.

Turning to `NC(=O)NCC1CCN(c2nc(Nc3ccc4c(c3)CCC(=O)N4)ncc2F)CC1` [Example 37, 1-((1-(5-fluoro-2-(2-oxo-1,2,3,4-tetrahydroquinolin-6-ylamino)pyrimidin-4-yl)piperidin-4-yl)methyl)urea], the concentration for half-maximal inhibition (IC50) lay within 100 to 1000 nM.

Turning to `COc1ccc(Nc2nc(Nc3ccc4c(c3)CCC(=O)N4)nc3[nH]cc(C#N)c23)cc1` [Example 111, 4-(4-methoxyphenylamino)-2-(2-oxo-1,2,3,4-tetrahydroquinolin-6-ylamino)-7H-pyrrolo[2,3-d]pyrimidine-5-carbonitrile], the IC50 lay within 100 to 1000 nM.

In the case of `COC(=O)N(C)c1ccc(Nc2nc(NC3CCC3)c3cc[nH]c3n2)cc1` [Example 72, Methyl 4-(4-(cyclobutylamino)-7H-pyrrolo[2,3-d]pyrimidin-2-ylamino)phenyl(methyl)carbamate], the IC50 is 100 to 1000 nM.

Still in this test, the particulars now being: Table 4; 1 nM SYK, 100 μM ATP; read-out: syk IC50.
For the compound `CC(=O)N1CCN(c2ccc(Nc3ncc(F)c(N4CCCCC4CN)n3)cc2)CC1` (centres unmarked) [Example 34, 1-(4-(4-(4-(2-(aminomethyl)piperidin-1-yl)-5-fluoropyrimidin-2-ylamino)phenyl)piperazin-1-yl)ethanone], the IC50 was > 1000 nM.

Turning to `CC(=O)N1CCN(c2ccc(Nc3nc(N4CCCCC4)c4cc[nH]c4n3)cc2)CC1` [Example 20, 1-(4-(4-(4-(piperidin-1-yl)-7H-pyrrolo[2,3-d]pyrimidin-2-ylamino)phenyl)piperazin-1-yl)ethanone], the IC50 was > 1000 nM.

Take `COc1cc(Nc2ncc(F)c(N3CCC(CN)CC3)n2)cc(OC)c1OC` [Example 17, 4-(4-(aminomethyl)piperidin-1-yl)-5-fluoro-N-(3,4,5-trimethoxyphenyl)pyrimidin-2-amine]: the IC50 is 100 to 1000 nM.

With `c1cc2c(N3CCCC3)nc(Nc3ccc(N4CCNCC4)cc3)nc2[nH]1` [Example 21, N-(4-(piperazin-1-yl)phenyl)-4-(pyrrolidin-1-yl)-7H-pyrrolo[2,3-d]pyrimidin-2-amine], the 50% inhibitory concentration (IC50) was 100 to 1000 nM.
